Reference: patent US8936916B2, “Polypeptides for microbial detection” (3M Innovative Properties Company, priority 2008, dated 2015)
Ends that are not written are not given here. * marks the point of attachment. Myristoyl = CCCCCCCCCCCCCC(=O)*

Assay: Permeabilization of DPPC liposomes containing glucose oxidase by phosphorylated dermatoxin (absorbance at 538 nm)
Assay type: biochemical
Protocol: DPPC liposomes containing 5 mg/mL glucose oxidase were prepared as described in Example 2. Glucose oxidase activity was measured in a coupled enzyme reaction with horseradish peroxidase as described in Example 2. The various solutions were quickly added to each of the wells of a microplate using a multichannel pipette and the reactions were started (at T=0 hours) with the addition to the wells of a solution containing glucose and 4-AAP.
The ability of the phosphorylated dermatoxin to open liposomes in the presence of phosphatase was tested by preparing a developing solution as described in Example 2. One hundred-fifty microliters of the developing solution was placed in each well of a 96-well microplate. To each column in the plate was added 20 μL of TES buffer containing one of the following concentrations of unpurified dermatoxin: 3.3 mg/mL, 3.3×10^−1 mg/mL, 3.3×10^−2 mg/mL, 3.3×10^−3 mg/mL, 3.3×10^−4 mg/mL, 3.3×10^−5 mg/mL, 3.3×10^−6 mg/mL, or 3.3×10^−7 mg/mL. Negative control wells contained TES buffer with no dermatoxin. Positive control wells buffer contained TES buffer with Triton X-100. Ten-microliter aliquots of the following concentrations of DPPC liposomes (containing 5 mg/mL glucose oxidase) were added to wells in duplicate rows: 0.1 mg lipid/mL, 0.02 mg lipid/mL, 0.004 mg lipid/mL, or plain buffer. To one of the duplicate rows was added 20 μL of 2.5 mg/mL alkaline phosphatase in TES. The other duplicate row received 20 μL of TES buffer. Thus the final dermatoxin concentration in the well varied from […], and the final lipid concentration in the well ranged from 0.005 mg lipid/mL to 2.0×10^−4 mg lipid/mL.
The absorbance was recorded at 538 nm on a SpectraMax M5 plate reader (Molecular Devices, Sunnyvale, Calif.) after two hours incubation at room temperature, and also after overnight incubation (approximately 18 hours). Since the absorbance of several wells was saturated, the overnight samples were diluted 1:10 with 50 mmol TES and the absorbance of the diluted samples was measured.

In the case of “SLGSFLKGVGTTLASVGKVVSDQFGKLLQAGQ (Myristoyl-SLGSFLKGVGTTLASVGKVVSDQFGKLLQAGQ; also: phosphorylated) [phosphorylated dermatoxin, fully phosphorylated dermatoxin, unpurified crude preparation]”, the “Absorbance at 538 nm (cytolytic peptide activity)” value (“Absorbance at 538 nm” for short) (2 hrs, lipid conc. 0, dermatoxin mass 3.3 × 10^−5 mg, with phosphatase) is reported as 0.122 absorbance units, the “Absorbance at 538 nm” value (2 hrs, lipid conc. 0, dermatoxin mass 3.3 × 10^−5 mg, without phosphatase) is reported as 0.121 absorbance units and the “Absorbance at 538 nm” value (2 hrs, lipid conc. 0, dermatoxin mass 3.3 × 10^−6 mg, with phosphatase) is reported as 0.120 absorbance units. The “Absorbance at 538 nm” value (2 hrs, lipid conc. 0, dermatoxin mass 3.3 × 10^−6 mg, without phosphatase) was 0.115 absorbance units, the “Absorbance at 538 nm” value (2 hrs, lipid conc. 0, dermatoxin mass 3.3 × 10^−7 mg, with phosphatase) was 0.118 absorbance units and the “Absorbance at 538 nm” value (2 hrs, lipid conc. 0, dermatoxin mass 3.3 × 10^−7 mg, without phosphatase) was 0.116 absorbance units. The “Absorbance at 538 nm” value (2 hrs, lipid conc. 0, dermatoxin mass 3.3 × 10^−8 mg, with phosphatase) was 0.119 absorbance units, the “Absorbance at 538 nm” value (2 hrs, lipid conc. 0, dermatoxin mass 3.3 × 10^−8 mg, without phosphatase) was 0.114 absorbance units and the “Absorbance at 538 nm” value (2 hrs, lipid conc. 0, dermatoxin mass 3.3 × 10^−9 mg, with phosphatase) was 0.118 absorbance units. The “Absorbance at 538 nm” value (2 hrs, lipid conc. 0, dermatoxin mass 3.3 × 10^−9 mg, without phosphatase) was 0.113 absorbance units, the “Absorbance at 538 nm” value (2 hrs, lipid conc. 0.004, dermatoxin mass 3.3 × 10^−5 mg, with phosphatase) was 0.204 absorbance units and the “Absorbance at 538 nm” value (2 hrs, lipid conc. 0.004, dermatoxin mass 3.3 × 10^−5 mg, without phosphatase) was 0.200 absorbance units. For the same sequence, the “Absorbance at 538 nm” value (2 hrs, lipid conc. 0.004, dermatoxin mass 3.3 × 10^−6 mg, with phosphatase) was 0.197 absorbance units, the “Absorbance at 538 nm” value (2 hrs, lipid conc. 0.004, dermatoxin mass 3.3 × 10^−6 mg, without phosphatase) was 0.161 absorbance units and the “Absorbance at 538 nm” value (2 hrs, lipid conc. 0.004, dermatoxin mass 3.3 × 10^−7 mg, with phosphatase) was 0.130 absorbance units. The “Absorbance at 538 nm” value (2 hrs, lipid conc. 0.004, dermatoxin mass 3.3 × 10^−7 mg, without phosphatase) was 0.119 absorbance units, the “Absorbance at 538 nm” value (2 hrs, lipid conc. 0.004, dermatoxin mass 3.3 × 10^−8 mg, with phosphatase) was 0.126 absorbance units and the “Absorbance at 538 nm” value (2 hrs, lipid conc. 0.004, dermatoxin mass 3.3 × 10^−8 mg, without phosphatase) was 0.111 absorbance units. For the same sequence, the “Absorbance at 538 nm” value (2 hrs, lipid conc. 0.004, dermatoxin mass 3.3 × 10^−9 mg, with phosphatase) was 0.126 absorbance units, the “Absorbance at 538 nm” value (2 hrs, lipid conc. 0.004, dermatoxin mass 3.3 × 10^−9 mg, without phosphatase) was 0.115 absorbance units and the “Absorbance at 538 nm” value (2 hrs, lipid conc. 0.02, dermatoxin mass 3.3 × 10^−5 mg, with phosphatase) was 0.546 absorbance units. The “Absorbance at 538 nm” value (2 hrs, lipid conc. 0.02, dermatoxin mass 3.3 × 10^−5 mg, without phosphatase) was 0.633 absorbance units, the “Absorbance at 538 nm” value (2 hrs, lipid conc. 0.02, dermatoxin mass 3.3 × 10^−6 mg, with phosphatase) was 0.480 absorbance units and the “Absorbance at 538 nm” value (2 hrs, lipid conc. 0.02, dermatoxin mass 3.3 × 10^−6 mg, without phosphatase) was 0.263 absorbance units. For the same sequence, the “Absorbance at 538 nm” value (2 hrs, lipid conc. 0.02, dermatoxin mass 3.3 × 10^−7 mg, with phosphatase) was 0.140 absorbance units, the “Absorbance at 538 nm” value (2 hrs, lipid conc. 0.02, dermatoxin mass 3.3 × 10^−7 mg, without phosphatase) was 0.141 absorbance units and the “Absorbance at 538 nm” value (2 hrs, lipid conc. 0.02, dermatoxin mass 3.3 × 10^−8 mg, with phosphatase) was 0.132 absorbance units. For the same sequence, the “Absorbance at 538 nm” value (2 hrs, lipid conc. 0.02, dermatoxin mass 3.3 × 10^−8 mg, without phosphatase) was 0.111 absorbance units, the “Absorbance at 538 nm” value (2 hrs, lipid conc. 0.02, dermatoxin mass 3.3 × 10^−9 mg, with phosphatase) was 0.124 absorbance units and the “Absorbance at 538 nm” value (2 hrs, lipid conc. 0.02, dermatoxin mass 3.3 × 10^−9 mg, without phosphatase) was 0.114 absorbance units. The “Absorbance at 538 nm” value (2 hrs, lipid conc. 0.1, dermatoxin mass 3.3 × 10^−5 mg, with phosphatase) was 2.034 absorbance units, the “Absorbance at 538 nm” value (2 hrs, lipid conc. 0.1, dermatoxin mass 3.3 × 10^−5 mg, without phosphatase) was 1.521 absorbance units and the “Absorbance at 538 nm” value (2 hrs, lipid conc. 0.1, dermatoxin mass 3.3 × 10^−6 mg, with phosphatase) was 1.473 absorbance units. For the same sequence, the “Absorbance at 538 nm” value (2 hrs, lipid conc. 0.1, dermatoxin mass 3.3 × 10^−6 mg, without phosphatase) was 0.759 absorbance units, the “Absorbance at 538 nm” value (2 hrs, lipid conc. 0.1, dermatoxin mass 3.3 × 10^−7 mg, with phosphatase) was 0.173 absorbance units and the “Absorbance at 538 nm” value (2 hrs, lipid conc. 0.1, dermatoxin mass 3.3 × 10^−7 mg, without phosphatase) was 0.267 absorbance units. The “Absorbance at 538 nm” value (2 hrs, lipid conc. 0.1, dermatoxin mass 3.3 × 10^−8 mg, with phosphatase) was 0.136 absorbance units, the “Absorbance at 538 nm” value (2 hrs, lipid conc. 0.1, dermatoxin mass 3.3 × 10^−8 mg, without phosphatase) was 0.132 absorbance units and the “Absorbance at 538 nm” value (2 hrs, lipid conc. 0.1, dermatoxin mass 3.3 × 10^−9 mg, with phosphatase) was 0.134 absorbance units. For the same sequence, the “Absorbance at 538 nm” value (2 hrs, lipid conc. 0.1, dermatoxin mass 3.3 × 10^−9 mg, without phosphatase) was 0.121 absorbance units, the “Absorbance at 538 nm” value (18 hrs (d), 1:10-diluted sample, lipid conc. 0, dermatoxin mass 3.3 × 10^−5 mg, with phosphatase) was 0.053 absorbance units and the “Absorbance at 538 nm” value (18 hrs (d), 1:10-diluted sample, lipid conc. 0, dermatoxin mass 3.3 × 10^−5 mg, without phosphatase) was 0.054 absorbance units. For the same sequence, the “Absorbance at 538 nm” value (18 hrs (d), 1:10-diluted sample, lipid conc. 0, dermatoxin mass 3.3 × 10^−6 mg, with phosphatase) was 0.053 absorbance units, the “Absorbance at 538 nm” value (18 hrs (d), 1:10-diluted sample, lipid conc. 0, dermatoxin mass 3.3 × 10^−6 mg, without phosphatase) was 0.052 absorbance units and the “Absorbance at 538 nm” value (18 hrs (d), 1:10-diluted sample, lipid conc. 0, dermatoxin mass 3.3 × 10^−7 mg, with phosphatase) was 0.052 absorbance units. The “Absorbance at 538 nm” value (18 hrs (d), 1:10-diluted sample, lipid conc. 0, dermatoxin mass 3.3 × 10^−7 mg, without phosphatase) was 0.054 absorbance units, the “Absorbance at 538 nm” value (18 hrs (d), 1:10-diluted sample, lipid conc. 0, dermatoxin mass 3.3 × 10^−8 mg, with phosphatase) was 0.054 absorbance units and the “Absorbance at 538 nm” value (18 hrs (d), 1:10-diluted sample, lipid conc. 0, dermatoxin mass 3.3 × 10^−8 mg, without phosphatase) was 0.053 absorbance units. For the same sequence, the “Absorbance at 538 nm” value (18 hrs (d), 1:10-diluted sample, lipid conc. 0, dermatoxin mass 3.3 × 10^−9 mg, with phosphatase) was 0.053 absorbance units, the “Absorbance at 538 nm” value (18 hrs (d), 1:10-diluted sample, lipid conc. 0, dermatoxin mass 3.3 × 10^−9 mg, without phosphatase) was 0.053 absorbance units and the “Absorbance at 538 nm” value (18 hrs (d), 1:10-diluted sample, lipid conc. 0.004, dermatoxin mass 3.3 × 10^−5 mg, with phosphatase) was 0.092 absorbance units. For the same sequence, the “Absorbance at 538 nm” value (18 hrs (d), 1:10-diluted sample, lipid conc. 0.004, dermatoxin mass 3.3 × 10^−5 mg, without phosphatase) was 0.096 absorbance units, the “Absorbance at 538 nm” value (18 hrs (d), 1:10-diluted sample, lipid conc. 0.004, dermatoxin mass 3.3 × 10^−6 mg, with phosphatase) was 0.090 absorbance units and the “Absorbance at 538 nm” value (18 hrs (d), 1:10-diluted sample, lipid conc. 0.004, dermatoxin mass 3.3 × 10^−6 mg, without phosphatase) was 0.081 absorbance units. For the same sequence, the “Absorbance at 538 nm” value (18 hrs (d), 1:10-diluted sample, lipid conc. 0.004, dermatoxin mass 3.3 × 10^−7 mg, with phosphatase) was 0.066 absorbance units, the “Absorbance at 538 nm” value (18 hrs (d), 1:10-diluted sample, lipid conc. 0.004, dermatoxin mass 3.3 × 10^−7 mg, without phosphatase) was 0.056 absorbance units and the “Absorbance at 538 nm” value (18 hrs (d), 1:10-diluted sample, lipid conc. 0.004, dermatoxin mass 3.3 × 10^−8 mg, with phosphatase) was 0.063 absorbance units. For the same sequence, the “Absorbance at 538 nm” value (18 hrs (d), 1:10-diluted sample, lipid conc. 0.004, dermatoxin mass 3.3 × 10^−8 mg, without phosphatase) was 0.054 absorbance units and the “Absorbance at 538 nm” value (18 hrs (d), 1:10-diluted sample, lipid conc. 0.004, dermatoxin mass 3.3 × 10^−9 mg, with phosphatase) was 0.062 absorbance units.
